Results reported in US10925848B2, “Amide derivative” (Daiichi Sankyo Company, Limited, priority 2017, dated 2021).
pIC50: −log10 of the molar value.

How the values were obtained:
[1] = target: tryptophanase of Bacteroides tetaiotaomicron (Bacteroides thetaiotaomicron, UniProt Q8A7N2); assay: Tryptophanase enzyme inhibitory activity (LDH-coupled NADH loss); format: biochemical; details: 10 mM L-tryptophan, 30 min preincubation at 37° C., absorbance at 340 nm
Experimental: Tryptophanase inhibitory activity was evaluated by a method using lactate dehydrogenase (LDH). The reaction time-dependent reduction in NADH conjugated with the enzymatic reaction, with LDH, of pyruvic acid produced through the enzymatic reaction of L-tryptophan as a substrate with tryptophanase, was measured with a spectrophotometer (Phillips-R S et al., Biochemistry, 23, 6228-6234 (1984)). Enzyme inhibitory activity obtained without adding a test compound (by adding DMSO alone) in the presence of tryptophanase was used as a control. As the enzyme, tryptophanase of Bacteroides tetaiotaomicron (Genbank accession number: HC914434.1) was used.
A test compound solution was prepared by dissolving each test compound in DMSO at concentrations (from 30 mM to 30 nM at 10-fold common ratio). LDH, NADH and L-tryptophan were dissolved, using distilled water, respectively to concentrations of 80 units/mL, 10 mM and 50 mM. Bacteroides tryptophanase was prepared to 30 mg/mL. A potassium phosphate buffer was used as the buffer.
A reaction solution A was dispensed at 284.8 μL per well into a 96-well plate, and the test compound solution was added at 3.2 μL per well to obtain a final concentration of 1/100 (reaction solution B). The reaction solution B was incubated at 37° C. for 30 minutes, L-tryptophan was added thereto at 32 μL per well to obtain a final concentration of […] (reaction solution C), and the enzyme reaction was performed at 37° C. over 30 minutes with absorbance at 340 nm measured for monitoring the NADH loss. Based on the NADH loss, the tryptophanase inhibitory activity of the compound was evaluated.

Bacteroides = assay: Indole production suppressing effect in viable bacterium; format: cell-based; details: 5 mM L-Tryptophan assay medium, anaerobic, indole in culture supernatant, read-out: Bacteroides Indole Production Inhibitory Activity(IC50)
Experimental: The effect of a tryptophanase inhibitory compound to suppress indole production from a viable bacterium can be evaluated through the following operation.
When E. coli (Eschelicia coli) is used as a strain known to produce indole, the strain is cultured in an LB medium at 37° C. for 12 to 18 hours under anaerobic conditions, and then, suspended in an assay medium (5 mM L-Tryptophan/PBS(+)/25 mM HEPES (pH8)) in such a manner as to obtain O.D. of about 0.3. When bacteroides is used, the strain is cultured in a modified GAM medium at 37° C. for 12 to 18 hours under anaerobic conditions, and then suspended in an assay medium (5 mM L-Tryptophan/PBS(+)/25 mM HEPES (pH8)) in such a manner as to obtain O.D. of about 1.1. The thus obtained viable bacterial suspension prepared to have a final concentration of a compound of 1 μM to 10 mM is dispensed at 200 μL per well into a 96-well plate and cultured at 37° C. for 2 to 4 hours under anaerobic conditions, O.D., an ATP concentration (that can be quantitatively determined by using BacTiter-Glo (Promega Corporation)) and an indole concentration in the culture supernatant (that can be quantitatively determined by utilizing Ehrlich reaction) are measured. The effect of the tryptophanase inhibitory compound to suppress indole production from a viable bacterium can be evaluated depending on the degree of lowering of the indole concentration in the culture supernatant. It can be checked whether or not the effect is derived from a function other than tryptophanase inhibition, such as a bactericidal function or a bacterial growth inhibitory function, depending on lowering of the O.D. or reduction in the ATP concentration or by performing a generally practiced antibacterial activity test (a MIC (minimum growth inhibition concentration) test) using levofloxacin or the like as a positive control.
The activities of inhibiting indole production of the compounds of the respective examples shown in Table 13 were measured by the above-described method using Bacteroides to evaluate the effect of inhibiting indole production.

plasma indoxyl sulfate = assay: Effect of reducing plasma indoxyl sulfate concentration in mice; format: in vivo; details: oral gavage, plasma 6 hours after L-tryptophan
Experimental: An effect of a tryptophanase inhibitory compound to reduce plasma indoxyl sulfate concentration in a mouse can be evaluated through the following operation.
After fasting male BALB/c mice overnight, a tryptophanase inhibitory compound dissolved or suspended at a concentration of 0.01 to 10 mg/mL in 0.5% methylcellulose (MC) solution used as a solvent and 0.5% MC solution are orally administered by gavage at a volume of 10 mL/kg respectively to test compound groups and to a solvent control group. 30 minutes after the administration of the test compound or the solvent, L-tryptophan, that is, a substrate of tryptophanase, is orally administered by gavage at a dose of 1 to 3 g/kg. The L-tryptophan is suspended in a 0.5% tragacanth solution. For 12 hours after the administration of the L-tryptophan, blood is collected over time from a tail vein by using a hematocrit tube. The thus obtained blood is centrifuged at 11,000 rpm for 5 minutes to collect plasma, and the indoxyl sulfate concentration in the plasma is measured singly by liquid chromatography (fluorescence detection) or its combination with a mass spectrometer used subsequently. Plasma indoxyl sulfate concentration in the test compound group against the plasma indoxyl sulfate concentration in the solvent control group is calculated as, for example, a ratio of the area under a curve of the indoxyl sulfate concentration, and thus, the efficacy of each compound in vivo can be compared.
The indoxyl sulfate concentrations in plasma obtained by using the compounds of the respective examples shown in Table 14 below were measured by the above-described method to evaluate the plasma indoxyl sulfate suppressing effect.

Chain of tryptophanase of Bacteroides tetaiotaomicron (Q8A7N2 entry or part of it, change not shown): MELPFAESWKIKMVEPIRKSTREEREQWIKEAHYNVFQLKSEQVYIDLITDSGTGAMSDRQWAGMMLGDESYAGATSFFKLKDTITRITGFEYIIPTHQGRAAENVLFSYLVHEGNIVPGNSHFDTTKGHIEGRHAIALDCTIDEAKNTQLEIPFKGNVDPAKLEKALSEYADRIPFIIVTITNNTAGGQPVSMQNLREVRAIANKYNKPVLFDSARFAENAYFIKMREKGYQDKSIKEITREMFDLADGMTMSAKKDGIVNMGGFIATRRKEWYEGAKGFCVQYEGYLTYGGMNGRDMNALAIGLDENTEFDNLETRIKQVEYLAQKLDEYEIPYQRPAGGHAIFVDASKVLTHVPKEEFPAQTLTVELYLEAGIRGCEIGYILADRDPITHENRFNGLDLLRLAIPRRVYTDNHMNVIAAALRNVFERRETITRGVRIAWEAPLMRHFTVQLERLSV

SMILES	pIC50 [1]	pIC50 (Bacteroides)	Plasma Indoxyl Sulfate Reduction Effect in Male BALB/c Mouse (Indoxyl sulfate reduction effect in plasma 6 hours after administration of L-tryptophan: ED75-, mg/kg) (plasma indoxyl sulfate)
CCOc1cc(N)c(I)cc1C(=O)N[C@@](C)(CC)C(=O)O [Compound of Example 20, (+)-N-(4-Amino-2-ethoxy-5-iodobenzoyl)-L-isovaline]	7.30	–	–
CC[C@@](C)(NC(=O)c1cc(Cl)c(N)cc1OC(F)F)C(=O)O [Compound of Example 31, (−)-N-[4-Amino-5-chloro-2-(difluoromethoxy)benzoyl]-D-isovaline]	6.96	–	–
CCOc1cc(N)c(F)cc1C(=O)N[C@](C)(CC)C(=O)O [Compound of Example 23, (−)-N-(4-Amino-2-ethoxy-5-fluorobenzoyl)-D-isovaline]	6.31	> 5.52	1 mg/kg
CCOc1cc(N)c(C#N)cc1C(=O)N[C@](C)(CC)C(=O)O [Compound of Example 29, (−)-N-(4-Amino-5-cyano-2-ethoxybenzoyl)-D-isovaline]	7.70	–	–
CCC(CC)(NC(=O)c1cc(F)c(N)c(Cl)c1)C(=O)O [Compound of Example 7, 2-[(4-Amino-3-chloro-5-fluorobenzoyl)amino]-2-ethylbutanoic Acid]	5.16	–	–
CCC(CC)(NC(=O)c1cc(Cl)c(N)cc1OC)C(=O)O [Compound of Example 6, 2-[(4-Amino-5-chloro-2-methoxybenzoyl)amino]-2-ethylbutanoic Acid]	6.70	> 5.52	1 mg/kg
CCC(CC)(NC(=O)c1ccc(N)cc1)C(=O)O [Compound of Example 1, 2-[(4-Aminobenzoyl)amino]-2-ethylbutanoic Acid]	4.57	–	–
CCOc1cc(N)c(I)cc1C(=O)N[C@](C)(CC)C(=O)O [Compound of Example 22, (−)-N-(4-Amino-2-ethoxy-5-iodobenzoyl)-D-isovaline]	7.10	–	–
CCOc1cc(N)c(Cl)cc1C(=O)N[C@](C)(CC)C(=O)O [Compound of Example 11, (−)-N-(4-Amino-5-chloro-2-ethoxybenzoyl)-D-isovaline]	7.05	> 5.52	1 mg/kg
CC[C@@](C)(NC(=O)c1cc(C(F)(F)F)c(N)cc1OC)C(=O)O [Compound of Example 26, (−)-N-(4-Amino-2-methoxy-5-(trifluoromethyl)benzoyl)-D-isovaline]	6.08	–	–
CCCOc1cc(N)c(F)cc1C(=O)NC(C)(C)C(=O)O [Compound of Example 32, N-(4-Amino-5-fluoro-2-propoxybenzoyl)-2-methylalanine]	6.27	–	–
CC(C)Oc1cc(N)c(Cl)cc1C(=O)NC(C)(C)C(=O)O [Compound of Example 9, N-[4-Amino-5-chloro-2-(propan-2-yloxy)benzoyl)-2-methylalanine]	6.41	–	–
CCC(CC)(NC(=O)c1ccc(N)c(C)c1)C(=O)O [Compound of Example 2, 2-[(4-Amino-3-methylbenzoyl)amino]-2-ethylbutanoic Acid]	5.11	–	–
CCOc1cc(N)c(Br)cc1C(=O)N[C@@](C)(CC)C(=O)O [Compound of Example 19, (+)-N-(4-Amino-5-bromo-2-ethoxybenzoyl)-L-isovaline]	7.22	–	–
CC[C@@](C)(NC(=O)c1cc(I)c(N)cc1OC)C(=O)O [Compound of Example 16, (−)-N-(4-Amino-5-iodo-2-methoxybenzoyl)-D-isovaline]	6.44	> 5.52	1 mg/kg
CC[C@@](C)(NC(=O)c1cc(F)c(N)cc1OC)C(=O)O [Compound of Example 30, (−)-N-(4-Amino-5-fluoro-2-methoxybenzoyl)-D-isovaline]	5.25	–	–
CC[C@](C)(NC(=O)c1cc(Cl)c(N)cc1OC)C(=O)O [Compound of Example 12, (+)-N-(4-Amino-5-chloro-2-methoxybenzoyl)-L-isovaline]	6.51	–	–
CCOc1cc(N)c(F)cc1C(=O)N[C@@](C)(CC)C(=O)O [Compound of Example 24, (+)-N-(4-Amino-2-ethoxy-5-fluorobenzoyl)-L-isovaline]	6.89	> 5.52	1 mg/kg
CCOc1cc(N)c(Cl)cc1C(=O)N[C@@](C)(CC)C(=O)O [Compound of Example 13, (+)-N-(4-Amino-5-chloro-2-ethoxybenzoyl)-L-isovaline]	7.10	–	–
CCC(NC(=O)c1ccc(N)c(Cl)c1)(C(=O)O)C1CC1 (stereo not shown) [Compound of Example 5, 2-[(4-Amino-3-chlorobenzoyl)amino]-2-cyclopropyl butanoic Acid]	6.00	–	–
CC[C@@](C)(NC(=O)c1cc(Br)c(N)cc1OC)C(=O)O [Compound of Example 15, (−)-N-(4-Amino-5-bromo-2-methoxybenzoyl)-D-isovaline]	6.11	> 5.52	1 mg/kg
CC[C@](C)(NC(=O)c1cc(I)c(N)cc1OC)C(=O)O [Compound of Example 18, (+)-N-(4-Amino-5-iodo-2-methoxybenzoyl)-L-isovaline]	7.00	–	–
CC[C@](C)(NC(=O)c1cc(Br)c(N)cc1OC)C(=O)O [Compound of Example 17, (+)-N-(4-Amino-5-bromo-2-methoxybenzoyl)-L-isovaline]	6.85	–	–
CCC(NC(=O)c1ccc(N)c(C)c1)(C(=O)O)C1CC1 (stereo not shown) [Compound of Example 4, 2-[(4-Amino-3-methylbenzoyl)amino]-2-cyclopropyl butanoic Acid]	5.77	–	–
CCC(CC)(NC(=O)c1cc(C)c(N)c(C)c1)C(=O)O [Compound of Example 3, 2-[(4-Amino-3,5-dimethylbenzoyl)amino]-2-ethylbutanoic Acid]	5.10	–	–
CCCOc1cc(N)c(Cl)cc1C(=O)NC(C)(C)C(=O)O [Compound of Example 14, N-(4-Amino-5-chloro-2-propoxybenzoyl)-2-methylalanine]	6.70	–	–
CCOc1cc(N)c(Cl)cc1C(=O)NC(C)(C)C(=O)O [Compound of Example 8, N-(4-Amino-5-chloro-2-ethoxybenzoyl)-2-methylalanine]	5.89	–	–
CC[C@@](C)(NC(=O)c1cc(C)c(N)cc1OC)C(=O)O [Compound of Example 28, N-(4-Amino-2-methoxy-5-methylbenzoyl)-D-isovaline]	5.50	–	–
